Some results are limits rather than exact numbers.

T2 sequence (P50406 whole entry): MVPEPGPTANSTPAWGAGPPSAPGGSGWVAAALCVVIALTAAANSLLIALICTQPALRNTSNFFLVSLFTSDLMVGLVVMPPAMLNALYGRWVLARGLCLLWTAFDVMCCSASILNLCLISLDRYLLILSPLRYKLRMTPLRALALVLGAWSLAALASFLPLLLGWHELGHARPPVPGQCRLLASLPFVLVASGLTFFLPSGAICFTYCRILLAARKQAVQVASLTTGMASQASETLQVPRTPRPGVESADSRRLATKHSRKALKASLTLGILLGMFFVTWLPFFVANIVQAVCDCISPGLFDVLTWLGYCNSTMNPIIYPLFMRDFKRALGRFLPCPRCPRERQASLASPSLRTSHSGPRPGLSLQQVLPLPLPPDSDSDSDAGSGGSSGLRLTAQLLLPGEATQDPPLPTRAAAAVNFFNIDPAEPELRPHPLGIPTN

The target in one data set is T1, Neuropeptide Y2 receptor (Rattus norvegicus, UniProt Q9ERC0).
T1 construct: from tissue; host or cells: rat hippocampus membranes (male Wistar rats)
T1 sequence (Q9ERC0 1-381): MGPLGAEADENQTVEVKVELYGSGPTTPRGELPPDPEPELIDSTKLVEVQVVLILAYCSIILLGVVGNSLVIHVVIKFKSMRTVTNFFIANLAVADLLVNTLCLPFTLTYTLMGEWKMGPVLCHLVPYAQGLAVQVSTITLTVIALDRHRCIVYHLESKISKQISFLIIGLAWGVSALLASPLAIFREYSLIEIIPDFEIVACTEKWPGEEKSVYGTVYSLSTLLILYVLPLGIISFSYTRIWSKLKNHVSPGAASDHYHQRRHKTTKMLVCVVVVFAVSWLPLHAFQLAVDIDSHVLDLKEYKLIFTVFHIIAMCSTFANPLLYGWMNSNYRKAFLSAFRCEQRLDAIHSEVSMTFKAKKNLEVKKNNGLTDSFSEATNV
Kind of data set: Binding to Neuropeptide Y2, Method (III), [125I]-PYY3-36, rat hypoccampus membranes. As to conditions: [125I]-PYY(3-36). Here is the method: Binding to Neuropeptide Y2
Male Wistar rats are sacrificed by decapitation, their brains are rapidly removed and the hypoccampus is dissected. Homogenization is performed in cold conditions in the buffer: 120 mM NaCl, 4.7 mM KCl, 2.2 mM CaCl2, 1.2 mM KH2PO4, 1.2 mM MgSO4, 25 mM NaHCO3, 5.5 mM glucose, pH 7.4, by means of a Ultra-Turrax homogenizer for 15 seconds at 13,500 rpm. The ratio between fresh tissue weight and buffer volume is of ten times. The membrane is centrifuged for 10 min at 48,000 g. The supernatant is discarded and the pellet is washed, resuspended and recentrifuged two more times. The final membrane resuspension is performed in the buffer: 120 mM NaCl, 4.7 mM KCl, 2.2 mM CaCl2, 1.2 mM KH2PO4, 1.2 mM MgSO4, 25 mM NaHCO3, 5.5 mM glucose, 0.1% BSA, 0.05% bacitracin, pH 7.4, at a 90 ml/g ratio of fresh issue. […] Incubation volume: 500 μl. […] The filters are cold-washed three times with three milliliters of the same buffer used in homogenization. […] Non-specific binding is determined in the presence of 1 μM of pNPY (Neuropeptide Y of porcine origin). The assays are performed in triplicate.
With `Cl.O=C(CN1CCC(N2C(=O)OCc3ccccc32)CC1)Nc1ccc2c(c1)-c1ccccc1C2=O` [Example 3a, 2-[4-(2-oxo-4H-benzo[d][1,3]oxazin-1-yl)-piperidin-1-yl]-N-(9-oxo-9H-fluoren-3-yl)-acetamide hydrochloride], the Ki is greater than 1000 nM.

As for `Cc1ccc2c(c1)COC(=O)N2C1CCN(CC(=O)Nc2ccc3c(c2)-c2ccccc2C3=O)CC1.Cl` [Example 20a, 2-[4-(6-methyl-2-oxo-4H-benzo[d][1,3]oxazin-1-yl)-piperidin-1-yl]-N-(9-oxo-9H-fluoren-3-yl)-acetamide hydrochloride], the inhibition constant Ki is greater than 1000 nM.

System in another data set: not given
Experiment: not given
Conditions: not given
`Cl.O=C(CN1CCC(N2C(=O)OCc3ccccc32)CC1)Nc1ccc2c(c1)-c1ccccc1C2=O` [Example 3a, 2-[4-(2-oxo-4H-benzo[d][1,3]oxazin-1-yl)-piperidin-1-yl]-N-(9-oxo-9H-fluoren-3-yl)-acetamide hydrochloride] yielded a melting point greater than 275 °C.

Regarding `Cc1ccc2c(c1)COC(=O)N2C1CCN(CC(=O)Nc2ccc3c(c2)-c2ccccc2C3=O)CC1.Cl` [Example 20a, 2-[4-(6-methyl-2-oxo-4H-benzo[d][1,3]oxazin-1-yl)-piperidin-1-yl]-N-(9-oxo-9H-fluoren-3-yl)-acetamide hydrochloride], the melting point was 250 to 252 °C.

For the compound `CN(C)CCn1ccc2c(NS(=O)(=O)CCc3cccc4ccccc34)cccc21` [Example 5d, N-[1-(2-dimethylaminoethyl)-1H-indole-4-yl]-2-(naphthalene-1-yl)-ethanesulfonamide], the melting point lay in the range of 47 to 54 °C.

For the compound `O=S(=O)(CCc1cccc2ccccc12)Nc1ccc2c(ccn2CCCN2CCCCC2)c1` [Example 48e, 2-(naphth-1-yl)-N-(1-(3-(piperidin-1-yl)propyl)-1H-indol-5-yl)ethanesulfonamide], the melting point was 59 to 61 °C.

`Cl.Cn1c2ccccc2c2cc(NC(=O)CN3CCC(N4C(=O)OCc5ccccc54)CC3)ccc21` gave a melting point of 191 to 193 °C.

Regarding `Cc1cccc2c1N(C1CCN(CC(=O)Nc3ccc(C(F)(F)F)cc3)CC1)C(=O)OC2.Cl`, the melting point lay within 264 to 274 °C.

On to `Cc1cc2cc(NS(=O)(=O)c3cc(Cl)cc(Cl)c3)ccc2n1CCN(C)C` [Example 39e, 3,5-dichloro-N-(1-(2-(dimethylamino)ethyl)-2-methyl-1H-indol-5-yl)-benzenesulfonamide], for which the melting point lay within 147 to 149 °C.

In turn, `CN(C)CCn1ccc2cc(NS(=O)(=O)c3ccc([N+](=O)[O-])cc3)ccc21` [Example 25e, N-[1-(2-dimethylaminoethyl)-1H-indole-5-yl]-4-nitrobenzenesulfonamide] came in with a melting point of 60 to 64 °C.

Turning to `CCN(CC)CCc1c[nH]c2ccc(NS(=O)(=O)c3cccc4ccccc34)cc12.Cl` [Example 3c, Hydrochloride N-[3-(2-diethylaminoethyl)-1H-indol-5-yl]naphthalene-1-sulphonamide], the melting point was 255 to 257 °C.

Compound `CN(C)CCc1c[nH]c2ccc(NS(=O)(=O)c3cccc4ccccc34)cc12` [Example 8c, N-[3-(2-dimethylaminoethyl)-1H-indol-5-yl]naphthalene-1-sulphonamide] gave a melting point of 203 to 205 °C.

As to `CCN(CC)CCc1c[nH]c2ccc(NS(=O)(=O)/C=C/c3ccccc3)cc12`, the melting point fell in the range of 125 to 130 °C.

As to `Cc1cccc2c1N(C1CCN(CC(=O)Nc3ccc(C(=O)c4ccccc4)cc3)CC1)C(=O)OC2.Cl`, the melting point was found to be 217 °C.

`Cl.O=C(CN1CCC(N2C(=O)OCc3cc(Cl)ccc32)CC1)Nc1ccc2c(c1)-c1ccccc1C2=O` displayed a melting point of 245 to 249 °C.

Take `O=S(=O)(Nc1ccc2c(ccn2CCN2CCCC2)c1)c1ccc2ccccc2c1` [Example 16e, N-[1-(2-pyrrolidine-1-yl-ethyl)-1H-indole-5-yl]-naphthalene-2-sulfonamide]: the melting point lay within 138 to 140 °C.

Consider `O=S(=O)(CCc1cccc2ccccc12)Nc1cccc2ccn(CCN3CCCC3)c12` [Example 8g, 2-(naphth-1-yl)-N-(1-(2-(pyrrolidin-1-yl)ethyl)-1H-indol-7-yl)ethansulfonamide], for which the melting point is 46 to 49 °C.

Compound `CN(C)CCc1c[nH]c2ccc(NS(=O)(=O)c3ccc4ccccc4c3)cc12` returned a melting point of 180 to 190 °C.

For the compound `CN(C)CCc1c[nH]c2ccc(NS(=O)(=O)c3cccc4nsnc34)cc12`, the melting point turned out to be 192 °C.

Turning to `Cc1ccc2c(c1)COC(=O)N2C1CCN(CC(=O)Nc2ccc3c(c2)-c2ccccc2C3O)CC1.Cl` (stereo not shown), the melting point fell in the range of 238 to 241 °C.

`Cl.N#Cc1ccc(NC(=O)CN2CCC(N3C(=O)OCc4cc(Cl)ccc43)CC2)cc1`: the melting point lay in the range of 274 to 278 °C.

The compound `CN(C)CCn1ccc2cc(NS(=O)(=O)c3ccc(Oc4ccccc4)cc3)ccc21` [Example 7e, N-[1-(2-dimethylaminoethyl)-1H-indole-5-yl]-4-phenoxybenzenesulfonamide] gave a melting point of 138 to 140 °C.

`Cc1cccc2c1N(C1CCN(CC(=O)Nc3ccccc3)CC1)C(=O)OC2.Cl` had a melting point of 232 to 239 °C.

As to `Cc1ccc2c(c1)COC(=O)N2C1CCN(CC(=O)Nc2ccc(C3CCCCC3)cc2)CC1`, the melting point was 155 to 157 °C.

Compound `CN(C)CCn1ccc2c(NS(=O)(=O)c3cc(Cl)cc(Cl)c3)cccc21` [Example 7d, N-[1-(2-dimethylaminoethyl)-1H-indole-4-yl]-3,5-dichlorobenzenesulfonamide] yielded a melting point of 113 to 118 °C.

Regarding `O=S(=O)(Nc1ccc2c(ccn2CCCN2CCCCC2)c1)c1cccc2ccccc12` [Example 45e, N-(1-(3-(piperidin-1-yl)propyl)-1H-indol-5-yl)naphthalene-1-sulfonamide], the melting point was 105 to 107 °C.

The compound `Cl.N#Cc1ccc(NC(=O)CN2CCC(N3C(=O)OCc4ccccc43)CC2)cc1` registered a melting point of 268 to 282 °C.

For the compound `Cl.O=C(CN1CCC(N2C(=O)OCc3cc(Cl)ccc32)CC1)Nc1ccccc1C(=O)c1ccccc1`, the melting point fell in the range of 167 to 178 °C.

Turning to `Cl.O=C(CN1CCC(N2C(=O)OCc3cc(Cl)ccc32)CC1)Nc1ccccc1`, the melting point is 265 to 277 °C.

For `O=S(=O)(Nc1ccc2ccn(CCN3CCCC3)c2c1)c1ccc(-c2ccccc2)cc1` [Example 13f, 4-Phenyl-N-(1-(2-(pyrrolidin-1-yl)ethyl)-1H-indol-6-yl)-benzenesulfonamide], the melting point was in the range of 178 to 181 °C.

As to `Cl.O=C(CCN1CCC(N2C(=O)OCc3ccccc32)CC1)Nc1ccc2c(c1)-c1ccccc1C2=O`, the melting point lay in the range of 240 to 242 °C.

Compound `CN1CCN(Cc2c[nH]c3ccc(NS(=O)(=O)Cc4ccccc4)cc23)CC1` [Example 41c, N-[3-(4-methylpiperazin-1-yl)methyl-1H-indol-5-yl]-α-toluenesulphonamide] displayed a melting point of 99 to 102 °C.

Another data set addresses T2, recombinant human 5HT6 receptor (Homo sapiens, UniProt P50406).
T2 construct: purchased Receptor Biology; host or cells: HEK-293 cell membranes
Put plainly: Binding to the 5HT6 serotonin receptor, [3H]-LSD, HEK-293 cell membranes. The conditions noted are these: 10^−6 M; compounds of general formula (Id), Table 1d. Here is the method: Binding to the 5HT6 Serotonin Receptor
The respective part of the literature descriptions is incorporated here by reference and form part of the disclosure. […] The assays are carried out in triplicate.
With `CN(C)CCn1ccc2c(NS(=O)(=O)CCc3cccc4ccccc34)cccc21` [Example 5d, N-[1-(2-dimethylaminoethyl)-1H-indole-4-yl]-2-(naphthalene-1-yl)-ethanesulfonamide], the inhibition at 1 µM came to 98.1%.

The same data set, now with this note: compounds of general formula (If), Table 1f.
As for `CN(C)CCn1ccc2ccc(NS(=O)(=O)c3ccc(-c4ccccc4)cc3)cc21` [Example 5f, N-[1-(2-Dimethylaminoethyl)-1H-indol-6-yl]-4-phenylbenzenesulfonamide], the Ki is 129 nM.

A word on the Ki: it is the dissociation constant of the complex between target and ligand, obtained from inhibition or displacement. A word on the melting point: it is the temperature, or range, at which the solid turns liquid. One may read the inhibition as the relative decrease from the control value, in per cent.

The record behind these values is patent US20070059364A1, “Active substance combination comprising a compound with npy receptor affinity and a compound with 5-ht6 receptor affinity” (Laboratorios Del Dr. Esteve S.A., priority 2003, published 2007).
